The text below walks through data of patent US10844013B2, “Phenyl amino piperidine mTORC inhibitors and uses thereof” (Navitor Pharmaceuticals, Inc., priority 2016, dated 2020).

Test [1] has as its system pAKT (p-Akt 1/2/3 (Ser473)) in MCF-7 cells. Briefly: AlphaLISA Ultra pAKT assay. The test is classed as cell-based. The settings on record: Homo sapiens, MCF7, 2 hours compound incubation. Here is the method:
Example 156: AlphaLISA Ultra pAKT Assay
(§1) Assay Protocol: • 1. MCF-7 cells in Corning 3701 plate and incubate for 20-24 hour. 16,000-20,000 cells will be seeded in 36 μL medium per well. • 2. Change the culture medium with fresh medium and incubate for another 2 hours. • 3. Add 12 μL (4×) compounds into the cell plate by HAMILTON. Final DMSO concentration is 0.5%. Incubate for 2 hours. • 4. Aspirate 38 j L by HAMILTON, 10 μL rest per well. • 5. Add 10 μL 2× lysis buffer using HAMILTON; total volume in wells is 20 μL. Allow cells to shake for 30 min. Cover plate by plastic foil and store plate at −80° C. up to analysis. • 6. Thaw cell lysate at RT and transfer 10 ul lysate to assay plate (Optiplate-384). • 7. Add 5 ul acceptor beads into assay plate and incubation for 2 hours • 8. Add 5 ul donor beads and incubation for 2 hours • 9. Count the plate by EnSpire Multimode Plate Reader
(In Alpha technology, singlet oxygen from a donor bead excites a nearby acceptor bead.)

The subject of test [2] is pS6K1 (p-p70 S6 Kinase (Thr389)) in MCF-7 cells. The experiment in a line: AlphaLISA Ultra pS6K1 assay. In kind it is cell-based. The settings on record: Homo sapiens, MCF7, 2 h, 2 hours compound incubation. Here is the method:
Example 155: AlphaLISA Ultra pS6K1 assay
as §1, with “1. Seed” for “1.”, “20˜24” for “20-24”, “12,000˜16,000” for “16,000-20,000”, “μL” for “j L”

Turning to `CNC(=O)c1cc(F)ccc1N1CCN(C(=O)c2cc(NC3CCN(c4ccccc4C#N)CC3)c(C)cc2C)CC1` [I-65], the IC50 (commonly the midpoint of a concentration-inhibition curve) in test [1] is over 10 µM; in test [2] it was 0.01 to 1 µM.

On to `Cc1cc(C)c(C(=O)N2CCN(c3ccccc3S(N)(=O)=O)CC2)nc1NC1CCN(c2ccccc2C#N)CC1` [I-66, 2-(4-(6-(1-(2-Cyanophenyl)piperidin-4-ylamino)-3,5-dimethylpicolinoyl)piperazin-1-yl)benzenesulfonamide], for which the IC50 in test [1] was over 10 µM; in test [2] it was 0.01 to 1 µM.

Consider `Cc1cc(C)c(C(=O)N2CCN(c3ccccc3S(N)(=O)=O)CC2)cc1NC1CCN(c2ccccc2C#N)CC1` [I-67], for which the IC50 was over 10 µM in test [1] and 0.01 to 1 µM in test [2].

As to `Cc1cc(C)c(N(C)C2CCN(c3ccccc3C#N)CC2)cc1C(=O)N1CCN(c2ccccc2C#N)CC1` [I-68, 2-[4-({5-[4-(2-cyanophenyl)piperazine-1-carbonyl]-2,4-dimethylphenyl}(methyl)amino)piperidin-1-yl]benzonitrile], the IC50 was over 10 µM in test [1] and 0.01 to 1 µM in test [2].

For `Cc1cc(C)c(C(=O)N2CCN(c3cc(F)c(F)cc3C#N)C[C@@H]2C)cc1NC1CCN(c2ccccc2C#N)CC1` [I-69, 2-[(3S)-4-(5-{[1-(2-Cyanophenyl)piperidin-4-yl]amino}-2,4-dimethylbenzoyl)-3-methylpiperazin-1-yl]-4,5-difluorobenzonitrile], the IC50 in test [1] is over 10 µM; in test [2], 0.01 to 1 µM.

As for `Cc1cc(C)c(C(=O)N2CCN(c3cccnn3)CC2)cc1NC1CCN(c2ccccc2C#N)CC1` [I-70, 2-[4-({2,4-Dimethyl-5-[4-(pyridazin-3-yl)piperazine-1-carbonyl]phenyl}amino)piperidin-1-yl]benzonitrile], the IC50 in test [1] was over 10 µM; in test [2], 3 to 5 µM.

`Cc1cc(C)c(C(=O)N2CCN(c3ccccc3C#N)CC2)cc1NC1CCN(c2ccccc2C#N)CC1` [I-71, 2-[4-({5-[4-(2-Cyanophenyl)piperazine-1-carbonyl]-2,4-dimethylphenyl}amino)piperidin-1-yl]benzonitrile]: the IC50 in test [1] was over 10 µM; in test [2], 0.01 to 1 µM.

On to `Cc1cc(C)c(C(=O)N2CCN(c3ccc(F)cn3)C(=O)C2)cc1NC1CCN(c2ccccc2C#N)CC1` [I-72, 2-[4-({5-[4-(5-Fluoropyridin-2-yl)-3-oxopiperazine-1-carbonyl]-2,4-dimethylphenyl}amino)piperidin-1-yl]benzonitrile], for which the concentration for half-maximal inhibition (IC50) in test [1] was over 10 µM; in test [2], 3 to 5 µM.

As to `Cc1cc(C)c(C(=O)N2CCN(c3ccccc3)C(CO)C2)cc1NC1CCN(c2ccccc2)C1` (centres unmarked) [I-73, (4-{2,4-Dimethyl-5-[(1-phenylpyrrolidin-3-yl)amino]benzoyl}-1-phenylpiperazin-2-yl)methanol], the half-inhibitory concentration (IC50) was over 10 µM in test [1] and 3 to 5 µM in test [2].

On to `Cc1cc(C)c(C(=O)N2CCN(c3ccccc3F)C(CO)C2)cc1NC1CCN(c2ccccc2C#N)CC1` (centres unmarked) [I-74, 2-[4-({5-[4-(2-Fluorophenyl)-3-(hydroxymethyl)piperazine-1-carbonyl]-2,4-dimethylphenyl}amino)piperidin-1-yl]benzonitrile], for which the IC50 in test [1] was over 10 µM; in test [2], 0.01 to 1 µM.

As for `Cc1cc(C)c(C(=O)N2CCN(c3ccc(F)cc3)C(CO)C2)cc1NC1CCN(c2ccccc2C#N)CC1` (centres unmarked) [I-76, 2-[4-({5-[4-(4-fluorophenyl)-3-(hydroxymethyl)piperazine-1-carbonyl]-2,4-dimethylphenyl}amino)piperidin-1-yl]benzonitrile], the concentration for half-maximal inhibition (IC50) in test [1] was over 10 µM; in test [2], 0.01 to 1 µM.

As to `Cc1cc(C)c(C(=O)N2CCN(c3ccccc3C#N)CC2)cc1NC1CCCN(c2ccc(C#N)cc2)CC1` (centres unmarked) [I-80, 2-[4-(5-{[1-(4-cyanophenyl)azepan-4-yl]amino}-2,4-dimethylbenzoyl)piperazin-1-yl]benzonitrile], the IC50 in test [1] was over 10 µM; in test [2] it was 1 to 3 µM.

With `Cc1cc(C)c(C(=O)N2CCN(c3ccccc3C#N)CC2)cc1NC1CCCN(c2cccc(C#N)c2)CC1` (centres unmarked) [I-81, 2-[4-(5-{[1-(3-cyanophenyl)azepan-4-yl]amino}-2,4-dimethylbenzoyl)piperazin-1-yl]benzonitrile], the IC50 in test [1] and in test [2] was over 10 µM throughout.

For `Cc1cc(C#N)c(NC2CCN(c3ccccc3C#N)CC2)cc1C(=O)N1CCN(c2ccccc2S(N)(=O)=O)CC1` [I-86, 2-(4-(4-Cyano-5-(1-(2-cyanophenyl)piperidin-4-ylamino)-2-methylbenzoyl)piperazin-1-yl)benzenesulfonamide], the IC50 in test [1] and in test [2] was over 10 µM each time.

Regarding `Cc1ccc(NC2CCN(c3ccccc3C#N)CC2)c(C)c1C(=O)N1CCN(c2cccc(F)c2S(N)(=O)=O)CC1` [I-87, 2-(4-(3-(1-(2-cyanophenyl)piperidin-4-ylamino)-2,6-dimethylbenzoyl)piperazin-1-yl)-6-fluorobenzenesulfonamide], the IC50 was over 10 µM in test [1] and 1 to 3 µM in test [2].

Consider `Cc1cc(F)c(NC2CCN(c3ccccc3C#N)CC2)cc1C(=O)N1CCN(c2ccccc2S(N)(=O)=O)CC1` [I-90, 2-(4-(5-(1-(2-cyanophenyl)piperidin-4-ylamino)-4-fluoro-2-methylbenzoyl)piperazin-1-y)benzenesulfonamide], for which the IC50 in test [1] was over 10 µM; in test [2], 3 to 5 µM.

`Cc1cc(C)c(C(=O)N2CCN(c3cccc(F)c3S(N)(=O)=O)CC2)cc1NC1CCN(c2c(F)cccc2C#N)CC1` [I-92, 2-(4-(5-(1-(2-Cyano-6-fluorophenyl)piperidin-4-ylamino)-2,4-dimethylbenzoyl)piperazin-1-yl)-6-fluorobenzenesulfonamide]: the figures for the IC50 in test [1] and in test [2] were over 10 µM and 1 to 3 µM, respectively.

Take `Cc1cc(C)c(C(=O)N2CCN(c3ncccc3[S@](C)(=N)=O)CC2)cc1NC1CCN(c2ccccc2C#N)CC1` [I-94, (R)-2-(4-(2,4-Dimethyl-5-(4-(3-(S-methylsulfonimidoyl)pyridin-2-yl)piperazine-1-carbonyl)phenylamino)piperidin-1-yl)benzonitrile]: the IC50 in test [1] was over 10 µM; in test [2], 1 to 3 µM.

Take `Cc1cc(C)c(C(=O)N2CCN(C(C)C)[C@H](CO)C2)cc1NC1CCN(c2ccccc2C#N)CC1` [I-95, (S)-2-(4-(5-(3-(Hydroxymethyl)-4-isopropylpiperazine-1-carbonyl)-2,4-dimethylphenylamino)piperidin-1-yl)benzonitrile]: the IC50 in test [1] and in test [2] was over 10 µM throughout.

Regarding `Cc1cc(C)c(C(=O)N2CCN(CC(F)(F)F)[C@@H](CO)C2)cc1NC1CCN(c2ccccc2C#N)CC1` [I-96, (R)-2-(4-(5-(3-(Hydroxymethyl)-4-(2,2,2-trifluoroethyl)piperazine-1-carbonyl)-2,4-dimethylphenylamino)piperidin-1-yl)benzonitrile], the half-inhibitory concentration (IC50) was over 10 µM in test [1] and 3 to 5 µM in test [2].

Take `Cc1cc(C)c(C(=O)NC2CCN(c3ccccc3C#N)CC2)cc1NC1CCN(c2ccccc2C#N)CC1` [I-97, N-(1-(2-Cyanophenyl)piperidin-4-yl)-5-(1-(2-cyanophenyl)piperidin-4-ylamino)-2,4-dimethylbenzamide]: the IC50 in test [1] and in test [2] was over 10 µM in each case.

On to `Cc1cc(C)c(C(=O)N2CCN(CC(F)(F)F)[C@H](CO)C2)cc1NC1CCN(c2ccccc2C#N)CC1` [I-98, (S)-2-(4-(5-(3-(Hydroxymethyl)-4-(2,2,2-trifluoroethyl)piperazine-1-carbonyl)-2,4-dimethylphenylamino)piperidin-1-yl)benzonitrile], for which the figures for the IC50 in test [1] and in test [2] were over 10 µM and 5 to 10 µM, respectively.

With `Cc1cc(C)c(C(=O)N2CCN(c3cc(F)ccn3)[C@@H](CO)C2)cc1NC1CCN(c2ccccc2C#N)CC1` [I-99, (R)-2-(4-(5-(4-(4-Fluoropyridin-2-yl)-3-(hydroxymethyl)piperazine-1-carbonyl)-2,4-dimethylphenylamino)piperidin-1-yl)benzonitrile], the IC50 was over 10 µM in test [1] and 1 to 3 µM in test [2].

With `Cc1cccc(N2CCN(C(=O)c3cc(NC4CCN(c5ccccc5C#N)CC4)c(C)cc3C)C[C@@H]2CO)n1` [I-101, (R)-2-(4-(5-(3-(Hydroxymethyl)-4-(6-methylpyridin-2-yl)piperazine-1-carbonyl)-2,4-dimethylphenylamino)piperidin-1-yl)benzonitrile], the IC50 is over 10 µM in test [1] and 1 to 3 µM in test [2].

For the molecule `Cc1cc(C)c(C(=O)N2CCN(c3ccc(F)cc3S(N)(=O)=O)CC2)nc1NC1CCN(c2ccccc2C#N)CC1` [I-103, 2-(4-(6-(1-(2-cyanophenyl)piperidin-4-ylamino)-3,5-dimethylpicolinoyl)piperazin-1-yl)-5-fluorobenzenesulfonamide], the IC50 in test [1] was over 10 µM; in test [2] it was 1 to 3 µM.
